Data from article PMC9967653, “Anticancer Activities of Novel Nicotinamide Phosphoribosyltransferase Inhibitors in Hematological Malignancies” (Molecules, 2023).
pIC50: −log10 of the molar value. Like-named read-outs stand apart in the source and are kept apart here.

Key:
[1] = system: ML2, Jurkat, Namalwa and RPMI8226 cells; assay: Cell death in the four hematological cancer cell lines, statements for all lines together; format: cell-based, human; settings: 96 h
Procedure: (§1) Four hematological cell lines (ML2—acute myeloid leukemia; Jurkat—acute lymphoblastic leukemia; Namalwa—Burkitt lymphoma; and RPMI8226—multiple myeloma) were purchased from DSMZ (German Collection of Microorganisms and Cell Cultures, Braunschweig, Germany) or ATCC.
(§2) All cells were cultured in RPMI medium (Invitrogen AG, 61870-01) supplemented with 10% heat inactivated fetal calf serum (Amimed, 2-01F30-I) and 1% penicillin/streptomycin at 37 °C (Amimed, 4-01F00-H) in a humidified atmosphere of 95% air and 5% CO2.
(§3) To determine the cell death induced by NAMPT inhibitors, malignant cells were stained with ANNEXIN-V (ANXN, eBioscience, BMS306FI/300) and 7-aminoactinomycin D (7AAD, Immunotech, A07704) as described by the manufacturer and analyzed using flow cytometry. Dead cells were identified as ANXN+7AAD+ /7AAD+ and early apoptotic cells as ANXN+ 7AAD-. Specific cell death induced by inhibitors was calculated using the following formula: percent of cell death induced by compound = [(S – C) / (100 – C)] × 100; where S = treated sample cell death and C = untreated sample cell death.
A dose-dependent analysis of cell death induced by NAMPT inhibitors on ML2 (A), Jurkat (B), Namalwa (C) and RPMI8226 (D) cell lines. The cells were treated with various concentrations of NAMPT inhibitors for 96 h and cell death was assessed by flow cytometry using ANXN and 7AAD staining. […]

[2] = biological target: T1, purified NAMPT (Homo sapiens, UniProt P43490); assay: NAMPT enzymatic activity assay (colorimetric kit); format: biochemical; settings: 1 µM final concentration
T1 construct: purchased Abcam ab221819
T1 sequence (P43490 whole entry): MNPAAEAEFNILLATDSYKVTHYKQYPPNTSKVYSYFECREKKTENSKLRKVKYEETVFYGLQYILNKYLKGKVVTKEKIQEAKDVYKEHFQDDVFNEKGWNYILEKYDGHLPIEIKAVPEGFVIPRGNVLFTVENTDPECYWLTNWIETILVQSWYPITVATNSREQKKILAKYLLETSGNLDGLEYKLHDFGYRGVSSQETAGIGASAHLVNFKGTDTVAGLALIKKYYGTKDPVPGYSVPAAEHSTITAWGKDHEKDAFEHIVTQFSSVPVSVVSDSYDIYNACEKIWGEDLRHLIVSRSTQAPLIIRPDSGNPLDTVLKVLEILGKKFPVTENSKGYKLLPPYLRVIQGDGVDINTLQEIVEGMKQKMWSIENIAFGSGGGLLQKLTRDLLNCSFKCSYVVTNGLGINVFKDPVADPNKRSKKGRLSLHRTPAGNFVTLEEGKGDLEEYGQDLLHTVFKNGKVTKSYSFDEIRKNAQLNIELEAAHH
Procedure: The ability of FK866 (APO866) analogues to inhibit NAMPT activity was assessed with an NAMPT Activity Assay Kit (Colorimetric) (Abcam, ab221819, Cambridge, UK) according to the manufacturer’s instructions. Briefly, NAMPT inhibitors were dissolved in DMSO to a final concentration of 1 µM and distributed in a 96-well plate in duplicate. Then, a reaction mix containing assay buffer, ATP, NMNAT1, NAM, PRPP and ddH2O was added and the plate was incubated at 30 °C for 60 min. After, to measure the generated NAD^+, a mix of WST-1, ADH, diaphorase and ethanol was added to the wells. The absorbance was measured in kinetic mode at 450 nm on a microplate reader for 45 min at 30 °C.
Figure 2 New compounds with a potent NAMPT inhibitory activity. Compounds were added in 1 µM final concentration to purified NAMPT and incubated with co-substrates, resulting in a reduction of tetrazolium salt (WST-1) to colorful formazan. The amount of formed dye is directly proportional to the enzyme activity. The absorbance of the dye was detected at OD 450 nm.

[3] = system: Namalwa tumors (human Burkitt lymphoma cell line); assay: Mouse xenograft model of human Burkitt lymphoma; format: in vivo; settings: for Tumor growth: 10 mg/kg I.P. twice a day for 4 days, weekly over 3 weeks, JJ08: 5 days after administration
Procedure: The new NAMPT inhibitors (JJ08, FEI191 and FEI199 (in comparison with lead compound, FK866 (APO866))) were evaluated in vivo in a mouse xenograft model of human Burkitt lymphoma. […] non-leaky C.B.-17 SCID mice (8 to 10 weeks old; Iffa Credo, L’Arbresle, France) were housed in micro-isolator cages in a specific pathogen-free room in the animal facility at the University Hospital of Lausanne. Firstly, the mice spent one week alone to acclimatize to their new environment. All animals were handled according to the institutional regulations and with the prior approval of the animal ethic committee of the University of Lausanne. Manipulations were performed in sterile conditions under a laminar flow hood. Firstly, Namalwa cells (1 × 10^7) were injected subcutaneously into the mouse flank side. Once the tumors became palpable and reached a size between 100 and 150 mm^3, mice (n = five/ group) were randomized into control and treated groups. The drugs were administered intraperitoneally (10 mg/kg body weight) in 200 µL 0.9% saline twice a day for 4 days, repeated weekly over 3 weeks. The control group was treated only with 200 µL 0.9% saline. Every day, the animals were monitored for any signs of illness, and in cases where the tumor size reached a diameter of 15 mm, they were sacrificed immediately.
Tumor size (A) and survival rate (B) of mice xenografted with Namalwa cells treated or untreated with NAMPT inhibitors were monitored for 21 days. Twenty-five 6-to-8-week-old C.B.-17 SCID mice were transplanted subcutaneously with Namalwa cells (10^7). Once tumors reached a volume of approximately 100–150 mm^3, at day 14, mice were randomized into five groups of animals (n = 5) with similar body weight. Control groups received vehicle (pink line) and JJ08 (10 mg/kg; light blue line), FEI191 (10 mg/kg; red line), FEI199 (10 mg/kg; green line) or APO866 (10 mg/kg; blue line) were administered as described in the Materials and Methods section. […] Data were analyzed by the Kaplan–Meier survival analysis with log-rank test.

[4] = system: Namalwa cells (Burkitt lymphoma); assay: Cell death after 96 h of treatment (ANXN/7AAD flow cytometry), Namalwa; format: cell-based; settings: Homo sapiens
Procedure: as §1, §2, §3

[5] = system: ML2 cells (acute myeloid leukemia); assay: Cell death after 96 h of treatment (ANXN/7AAD flow cytometry), ML2; format: cell-based; settings: Homo sapiens, ML-2; ML2, 96 h
Procedure: as §1, §2, §3

[6] = Pharmacokinetics in mice after intraperitoneal administration; format: in vivo; settings: for Cmax / Tmax / CL/F / AUC(0-t) / half-life / Vd/F: female SCID mice, intraperitoneal, 20 mg/kg (Figure S1); for Cmax / Tmax / AUC(0-t) / half-life / Vd/F: plasma; for CL/F: dose divided by AUC0-24; for Vd/F: (CL/F)/λz, read-out: Vz/F
Procedure: Concentration measurements in mice EDTA plasma samples were performed using a Vanquish Flex ultra-high-performance liquid chromatography (UHPLC) system attached to a TSQ Quantis^TM triple quadrupole mass spectrometer (MS) (ThermoFisher Scientific, Waltham, MA, USA). The chromatographic column was a Luna Omega Polar C18 3 µm, 50 × 2.1 mm from Phenomenex (Torrance, CA, USA), kept at 40 °C in a UHPLC oven. The mobile phase was made of water and acetonitrile (ACN) with 0.1% formic acid in each. The gradient program ranged from 20 to 95% ACN in 1.5 min and the total method duration (including equilibration for the next injection) was 3 min. The flow rate and injection volume were 0.5 mL/min and 5 µL, respectively.
For the sample preparation, 90 µL of ACN was added to an aliquot of 30 µL of mouse plasma for protein precipitation. The mixture was then centrifugated at 14,000 rpm and the supernatant was directly injected in the UHPLC–MS.
Drug plasma concentrations were measured at selected time points after intraperitoneal administration in mice (sacrificed mice in triplicates for each time point). Samples were analyzed on two separate occasions for each sampling. Then, pharmacokinetic (PK) parameters were computed using standard non-compartmental calculations for geometric means of the measured concentrations using the “PKNCA R Package” (R version 4.0.2, R Development Core Team, http://www.r-project.org/ access date: 4 February 2023).
The area under the curve (AUC0-24) was calculated for the four drugs using the trapezoidal and log-trapezoidal rule when appropriate. The terminal rate constant (λz) was approximated using the slope of the terminal phase, while the half-life (T1/2) was calculated as ln(2)/λz, the apparent clearance (CL/F) as the dose divided by AUC0-24 and the apparent volume of distribution (Vz/F) as (CL/F)/λz.

[7] = system: RPMI8226 cells (multiple myeloma); assay: Cell death after 96 h of treatment (ANXN/7AAD flow cytometry), RPMI8226; format: cell-based; settings: Homo sapiens, RPMI-8226; RPMI8226, 96 h
Procedure: as §1, §2, §3

[8] = system: Jurkat cells (acute lymphoblastic leukemia); assay: Cell death after 96 h of treatment (ANXN/7AAD flow cytometry), Jurkat; format: cell-based; settings: Homo sapiens
Procedure: as §1, §2, §3

Compound | Inhibition of NAMPT activity [2] | Tumor growth [3] | pIC50 [4] | pIC50 [5] | Cmax [6] | Tmax [6] [h] | CL/F [6] [mL/h] | pIC50 [7] | pIC50 [8] | half-life ([6]; mouse, ip) [h] | AUC(0-t) ([6]; mouse, ip, read-out: AUC0-24) [ng·h/mL] | Vd/F ([6]; mouse, ip) [L] | also measured
N#CN=C(NC/C=C/CCC1CCN(C(=O)c2ccco2)CC1)Nc1ccncc1 [FEI199] | full inhibition | did not stop tumor progression, but significantly delayed it | 9.54 | 9.68 | 12,031 ng/mL | 0.17 | 108 | 9.92 | 9.60 | – | – | – | pIC50 ([1]; Homo sapiens, all four cell lines, read-out: IC50 in all malignancies): > 9.52; Concentration inducing maximal cell killing ([1]; all tested cell lines): ≤ 0.5 nM; Clearance, fold higher than APO866 or JJ08 ([6]; mice, I.P.): more than 4 fold; AUC(0-t) ([6]; mouse, ip, AUC calculated from PK measurements up to 8 h, read-out: AUC0-24 (*)): 3720 ng·h/mL
O=C(/C=C/c1cccnc1)NCCCCC1CCN(C(=O)c2ccccc2)CC1 [APO866, reference compound] | – | – | 9.24 | 9.39 | 28,028 ng/mL | 0.17 | 24 | 9.64 | 9.33 | 3.74 | 16400 | 0.131 | –
O=C(/C=C/c1cccnc1)NCCCCC1CCN(C(=O)c2ccco2)CC1 [JJ08, (E)-N-(4-(1-(furan-2-carbonyl)piperidin-4-yl)butyl)-3-(pyridin-3-yl)acrylamide] | full inhibition | completely eradicated tumor growth | 9.24 | 9.29 | – | – | 53 | 9.52 | 9.07 | 6.58 | 7560 | 0.502 | Signs of toxicity (loss of body weight, lethargy, rough coat, premature death) ([3]; xenografted mice, 10 mg/kg I.P.): well tolerated; AUC0-24, fold lower than that of APO866 ([6]; mice, I.P.): approximately 2 fold; CL/F, fold higher compared to APO866 ([6]; mice, I.P.): 2 fold; Cmax ([6]; mouse, ip, read-out: Cmax): 24300 ng/mL; Tmax ([6]; mouse, ip, read-out: Tmax): 0.17 h
